The structures appear in SMILES notation.

The nature of this data set: gradient 5% acetonitrile 3 min, to 50% in 2 min, to 85% in 15 min, held 3 min, 100 µL/min. The note with it: column: Zorbax Extend-C18 2.1 x 50 mm; eluents: water / acetonitrile, 0.1% formic acid. Summed up: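 Retention time was recorded from adduct peaks, which were picked computationally and each inspected manually. Pure standards ran in mixtures of ~100 molecules on HPLC coupled to a quadrupole time-of-flight mass spectrometer, in positive and negative ionization mode, through a Zorbax Extend-C18 column (2.1 × 50 mm, 1.8 μm) at 100 μL/min. Eluents were water and acetonitrile, each with 0.1% formic acid.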
As to `CCC(C)(C)C(=O)N1CCCC(c2nc(CCNC(=O)C(C)C)cs2)C1` (centres undefined), the RP-LC retention time is 783 s. The value for `CCNC(=O)C1CCc2sc(C(=O)N(CC)CC)cc2C1` (centres undefined) was 660 s; that for `CCCN1C(=O)c2c(C(=O)NCCc3ccccc3)ncn2CC1(C)C(=O)NCCC(C)C` (centres undefined) was 891 s; that for `CCCn1cnc2cc(CNC(=O)c3ccc(OC)c(OC)c3)ccc21` was 606 s. The value for `COc1cccc(CNC(=O)N2CCCC2c2cc(C(C)C)no2)c1` (centres undefined) was 836 s; that for `CC(C)c1noc(-c2ccnc(-n3cnc(C(=O)N(C)C4CCCCC4)c3)c2)n1` was 622 s. Under `CCN1C(=O)C(CC(=O)NC2CCCCCC2)Sc2ncccc21` (centres undefined) stands 804 s; under `COc1ccc(-c2cn3c(CC(=O)N4CCN(c5ccccc5OC)CC4)csc3n2)cc1OC`, 698 s. On to `C=CCN(CC=C)S(=O)(=O)c1ccc(C(=O)Nc2nc3c(s2)CCc2ccccc2-3)cc1`, for which the RP-LC retention time amounted to 1240 s. Consider `COC(=O)c1ccc(-c2csc(NC(=O)c3cc(C)no3)n2)cc1`, for which the RP-LC retention time came to 846 s. Under `CN1C(=O)C(C)(C)N(Cc2ccccc2)c2ccccc21` stands 1080 s; under `Cc1nnc(-c2cc(NC(=O)c3cccc(Br)c3)c(C)s2)o1`, 938 s; under `Cc1nc(OCC(=O)Nc2ccc(F)c(Cl)c2)c2ccccc2n1`, 782 s.

In turn, `Cc1cccc(OCc2nc(-c3ccc(NS(C)(=O)=O)cc3)no2)c1` gave an RP-LC retention time of 801 s. Consider `COc1ccccc1-c1nc(Cc2noc(Cc3ccc(F)cc3)n2)c(C)o1`, for which the RP-LC retention time is 1000 s. Molecule `Cc1ccc(C(=O)N2CCn3c(nnc3C(C)C)C2)s1` registered an RP-LC retention time of 625 s.

Turning to `Cn1cc(C2=CCN(C(=O)NC3CCCC3)CC2)c2cccnc21`, the RP-LC retention time was 754 s. Turning to `Cc1ccc(-c2cn3cccc(C)c3n2)cc1NS(=O)(=O)c1ccc(Cl)cc1`, the RP-LC retention time came out at 714 s. With `COc1ccc(NC(=O)NC2CCN(c3ccc(F)cc3)C2=O)cc1OC` (centres undefined), the RP-LC retention time was 722 s. On to `COc1ccc(C(CC(=O)NCCN2CCN(C)CC2)N2Cc3ccccc3C2=O)cc1OC` (centres undefined), for which the RP-LC retention time is 579 s. Under `O=C(CN1C(=O)C2CCCCN2c2ccc(S(=O)(=O)N3CCCC3)cc21)NCc1cccnc1` (centres undefined) stands 646 s; under `COc1ccccc1CNC(=O)CCc1csc(NC(=O)c2ccc(F)cc2)n1`, 792 s.

In turn, `CCOc1ccc(C(=O)NCCc2c[nH]c3ccc(C)cc23)cc1OCC` displayed an RP-LC retention time of 910 s. Take `COc1cc(CNC(=O)C2CCCN(c3nccnc3Sc3ccccc3)C2)cc(OC)c1` (centres undefined): the RP-LC retention time turned out to be 986 s.

The molecule `O=C(NCCc1ccncc1)c1ccc2c(c1)ncn2-c1ccccc1` returned an RP-LC retention time of 550 s. Under `CC(C)c1noc(-c2ccnc(-n3cnc(C(=O)NC4CCCCCC4)c3)c2)n1` stands 771 s. The value for `O=C(Cc1ccccc1Cl)N1CCC2(CC1)N=C(c1ccccc1)NO2` was 841 s; that for `CCc1ccc(Nc2ncccc2S(N)(=O)=O)cc1` was 891 s. The value for `COc1cccc(Nc2nnc(CC(=O)N3CCSCC3)s2)c1` was 676 s; that for `Cc1ccn2cc(-c3ccc(NC(=O)c4cccc(C(F)(F)F)c4)cc3)nc2n1` was 716 s; that for `C=CCN(Cc1nc(-c2cccc(C)c2)no1)C(=O)Nc1ccccc1OC` was 1120 s.

In turn, `COC(=O)c1cccc(NC(=O)N2CCSc3ncccc32)c1` showed an RP-LC retention time of 739 s. Under `O=C(NC1CCCC1)c1nc(C(=O)N2CCN(c3ccccc3F)CC2)cs1` stands 940 s; under `Cc1c(Cl)cccc1NC(=O)Cn1c(=O)cc(-c2nc(C(C)C)no2)c2ccccc21`, 1080 s. Regarding `CC1CCN(S(=O)(=O)N2CCCC(C(=O)NCc3ccc(Cl)cc3)C2)CC1` (centres undefined), the RP-LC retention time turned out to be 1050 s.

In the case of `Cc1cc(C)n(-c2ccnc(N3CCC(C(=O)NCc4cccnc4)CC3)n2)n1`, the RP-LC retention time is 612 s. The value for `O=C(NCc1nc(-c2ccc(N3CCCCCC3)cc2)no1)c1ccco1` was 1020 s. With `O=C(NCc1ccco1)c1c(O)c2sccc2[nH]c1=O`, the RP-LC retention time is 787 s.

`CC(C)(C)c1ccc(-c2nc(NCCCN3CCOCC3)c3ccccc3n2)cc1` returned an RP-LC retention time of 595 s. In the case of `O=C(NC1CCCCCC1)C1CCN(S(=O)(=O)c2cc(-c3noc(C4CCC4)n3)cs2)CC1`, the RP-LC retention time came to 1110 s. Under `O=C1CCCc2cc(S(=O)(=O)NCCN3CCN(c4ccccc4)CC3)ccc2N1` stands 621 s; under `CCc1ccccc1N(C(=O)C1CCCCC1)C1C=CS(=O)(=O)C1` (centres undefined), 894 s.

`O=C(NCC1CC1)c1ccc2c(c1)nc1n2CCN(C2CCCCC2)C1=O` gave an RP-LC retention time of 706 s. `Cc1cc(-c2nnc(C3CCC3)o2)c(C)n1CC(=O)Nc1cccc(Cl)c1` had an RP-LC retention time of 960 s. Turning to `COc1ccc(-c2cc(N3CCN(C(=O)Nc4ccc5c(c4)OCCO5)CC3)ncn2)cc1`, the RP-LC retention time was 652 s. Regarding `COc1ccc(-c2noc3ncnc(N4CCC(C(=O)N5CCC(C(N)=O)CC5)CC4)c23)cc1`, the RP-LC retention time stood at 656 s. Regarding `COc1ccc(CNC(=O)Cc2nnc(-c3ccc4ncccc4c3)o2)cc1OC`, the RP-LC retention time was 646 s. With `CC1(C(=O)NC2CCCCC2)CN(S(=O)(=O)c2ccccc2)CC(=O)N1c1ccccc1F` (centres undefined), the RP-LC retention time worked out at 932 s. Under `CCN(CC)S(=O)(=O)c1ccc2c(c1)N(CC(=O)NCC1COCCO1)C(=O)C1CCCCN21` (centres undefined) stands 769 s; under `Cc1cccc(-c2noc(C3CCCN3C(=O)Nc3ccccc3Cl)n2)c1` (centres undefined), 606 s; under `CN1C(=O)c2cc(C(=O)NCCCN3CCCC3)nn2CC1(C)C(=O)NCc1ccccc1` (centres undefined), 589 s. With `Cc1cnc(-c2ccncc2)n1CC1CN(Cc2cccn2C)C1`, the RP-LC retention time worked out at 692 s. Under `O=C(c1ccc(OCC2CCCN2C(=O)c2ccccc2)cc1)N1CCCC1` (centres undefined) stands 789 s; under `Fc1ccc(-c2nnc(-c3ccc(-n4ccnc4)nc3)o2)cc1`, 648 s; under `Cc1ccc(NC(=O)C2(C)Oc3cccnc3N(C(C)C)C2=O)c(C)c1` (centres undefined), 1040 s.

Take `CS(=O)(=O)N(Cc1ccccn1)C1CN(C(=O)CCc2nc3ccccc3s2)C1`: the RP-LC retention time stood at 656 s. As for `O=C(Cc1nnc2c(-c3nc(C4CC4)no3)cccn12)NC1CCCC1`, the RP-LC retention time came out at 661 s. Consider `CCC(C(=O)NC(C)C(=O)Nc1nc2ccccc2[nH]1)c1ccccc1` (centres undefined), for which the RP-LC retention time came out at 691 s. As to `CCC(=O)c1ccc2c(c1)N(CCCN(C)C)c1ccccc1S2`, the RP-LC retention time was 772 s. Under `Cc1cc(Cl)ccc1NC(=O)C1CCCN(S(=O)(=O)c2c[nH]c(C(=O)N3CCCC3)c2)C1` (centres undefined) stands 852 s.

In turn, `CCOc1ccc(N2C(=O)Nc3ccccc3C2(O)C(=O)NCCCN2CCC(C)CC2)cc1` (centres undefined) displayed an RP-LC retention time of 582 s. Under `COc1cc(NC(=O)NCC(c2cccnc2)c2c[nH]c3ccccc23)cc(OC)c1OC` (centres undefined) stands 631 s; under `COC(=O)C(C)NC(=O)NCc1cccn1Cc1ccccc1C` (centres undefined), 821 s. The value for `Cn1nc(-c2nnc(-c3ccc(F)cc3)o2)c2c1CCN(S(=O)(=O)c1ccc(F)cc1F)C2` was 985 s. Under `O=C1CCCc2cc(S(=O)(=O)N3CCC(C(=O)Nc4cccc(Cl)c4)CC3)ccc2N1` stands 826 s; under `COc1ccccc1/C=C/c1nn2c(-c3cccnc3)nnc2s1`, 872 s; under `Cc1cccc(CNC(=O)CN2C(=O)C3CCCCN3c3ccc(S(=O)(=O)N(C)C)cc32)c1` (centres undefined), 932 s. `CCCN1CCN(C(=O)C2CCN(S(=O)(=O)c3ccc4c(c3)sc(=O)n4CC)CC2)CC1` showed an RP-LC retention time of 623 s. `COc1ccc(C(=O)c2cnc3ccc(OC)cc3c2N2CCOCC2)cc1` returned an RP-LC retention time of 677 s.

`Cc1cc2c(N3CCCC(C(=O)NCc4ccc(N5CCOCC5)cc4)C3)nccc2s1` (centres undefined) showed an RP-LC retention time of 711 s. `COc1ccc(-c2nc3cnccn3c2Nc2ccc3c(c2)OCCO3)cc1OC` yielded an RP-LC retention time of 717 s. The value for `COc1ccc(-c2coc3cc(OC(=O)N(C)C)cc(O)c3c2=O)cc1OC` was 858 s. The value for `O=C(Nc1cnc(-c2cccc(Cl)c2)nc1)c1ccsc1` was 1030 s; that for `Cc1cccc(-c2nnc(-c3cccc(S(=O)(=O)N4CCC(C)CC4)c3)o2)c1` was 1220 s. `Cc1sc(NC(=O)Cc2csc(-c3ccccc3)n2)nc1-c1cccc(Cl)c1` registered an RP-LC retention time of 1270 s. In turn, `COc1ccc(-c2noc(-c3cc(N4CCN(C)CC4)nc4ccccc34)n2)cc1` had an RP-LC retention time of 794 s. Under `Cc1ccc(CC(=O)N2CCC3(CC2)N=C(c2ccc(C)cc2)NO3)cc1` stands 874 s; under `Cn1c(=O)c2cc(C(=O)Nc3ccc(F)cc3)cnc2n(-c2ccccc2)c1=O`, 868 s; under `O=C(NCc1ccccc1)N1CC(Oc2ccc(-c3nc(-c4ccccc4)no3)cc2)C1`, 1130 s.

The values are drawn from the METLIN SMRT retention time set (Domingo-Almenara et al. 2019).
